Measured values published in publication PMC10743929, “Amphiphilic Sialic Acid Derivatives as Potential Dual-Specific Inhibitors of Influenza Hemagglutinin and Neuraminidase” (International Journal of Molecular Sciences, 2023).
“Also recorded” adds a separate entry of the source. Read-outs that look alike come from different tables or passages of the source. Marks after values point to notes of the source that are not given here.

Assays:
IAV (A/H1N1) = assay: CPE reduction assay, influenza A/H1N1 in MDCK cells; assay type: cell-based, influenza A virus A/H1N1 (A/Virginia/ATCC3/2009 or A/PR/8); conditions: Influenza A virus, H1N1, 72 h
Description: (§1) The process of CPE reduction assay for the influenza virus was described previously. The virus strains were A/Virginia/ATCC3/2009, A/PR/8 (A/H1N1), A/Victoria/361/11, A/HK/7/87 (A/H3N2), and B/Ned/537/05 (IBV). On day 0, Madin-Darby canine kidney (MDCK) cells in 96-well plates were infected with influenza virus at a multiplicity of infection (MOI) of 0.0004 plaque forming units (PFU) per cell, and that was incubated at 35 °C for 3 days. After the third day, virus-induced CPE and compound cytotoxicity were scored by microscopy, and the data were confirmed by formazan-based MTS cell viability assay (CellTiter 96® AQueous One Solution Cell Proliferation Assay from Promega, Madison, WI, USA). […] Compound cytotoxicity was expressed as the concentration of the compound causing minimal changes in cell morphology (MCC) and 50% cytotoxic concentration (CC50) based on the MTS assay.

in vitro = conditions: dog
H1N1 Hemagglutinin = H1N1 Hemagglutinin (Influenza A virus, UniProt P03452); assay: SPR affinity toward immobilized H1N1 hemagglutinin; assay type: binding, influenza type H1N1 (A/Puerto Rico/8/34); conditions: for Kd: KD(app)
H1N1 Hemagglutinin, sequence (P03452 18-565): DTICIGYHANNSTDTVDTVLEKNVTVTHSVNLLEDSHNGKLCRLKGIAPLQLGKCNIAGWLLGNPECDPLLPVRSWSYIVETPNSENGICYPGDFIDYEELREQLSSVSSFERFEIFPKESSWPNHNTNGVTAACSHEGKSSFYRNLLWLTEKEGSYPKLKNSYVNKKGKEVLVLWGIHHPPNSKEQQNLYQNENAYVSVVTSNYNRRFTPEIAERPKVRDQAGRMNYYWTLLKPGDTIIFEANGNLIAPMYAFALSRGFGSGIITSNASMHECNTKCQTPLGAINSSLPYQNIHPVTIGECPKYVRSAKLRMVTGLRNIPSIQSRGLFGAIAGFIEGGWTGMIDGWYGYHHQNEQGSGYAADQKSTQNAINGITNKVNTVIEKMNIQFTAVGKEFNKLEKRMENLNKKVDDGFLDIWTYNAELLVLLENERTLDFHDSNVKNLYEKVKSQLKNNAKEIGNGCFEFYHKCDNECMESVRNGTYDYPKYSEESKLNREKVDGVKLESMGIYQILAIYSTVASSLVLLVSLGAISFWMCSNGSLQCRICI
Description: (§2) SPR experiments were conducted using a BIAcore S200 instrument (Cytiva, Marlborough, MA, USA) employing a CM5 chip with a carboxymethyldextran surface (Cytiva, USA). Hemagglutinins (ThermoFisher Scientific, Invitrogen, Waltham, MA, USA) from influenza type H3N2 (A/Aichi/2/1968) and H1N1 (A/Puerto Rico/8/34), as well as neuraminidase (Invitrogen, USA) from H1N1 (A/California/04/2009), were immobilized on the chip surface following the standard amine coupling procedure outlined in the manufacturer’s instructions. This immobilization process was performed at a flow rate of 10 μL/min using PBST as the running buffer. The chip surface was initially activated using an N-ethyl-N-(3-dimethylaminopropyl)carbodiimide/N-hydroxysuccinimide solution. Subsequently, 50 μg/mL solutions of individual proteins in 10 mM sodium acetate, pH 5, were injected into channels 2, 3, and 4, respectively. To block any unreacted groups, all channels were treated with 1 M ethanolamine, resulting in a final response of 4500 RU for HAs and 2700 RU for neuraminidase. Channel 1 was activated and blocked in the same manner, without the injection of any protein, serving as a blank.
(§3) Tested compounds in a PBST working buffer (20 mM Na-phosphate, 150 mM NaCl, pH 7.4, 0.005% Tween 20, 5% DMSO) were injected into the chip at a flow rate of 30 μL/min at 25 °C. The injection duration was 3 min, followed by a 10 min buffer flow to facilitate spontaneous dissociation. Each compound was injected as a two-fold dilution series within a concentration range of 0.78–800 μM (2.44–2500 μM for sialic acid). After each compound concentration series, five buffer injections were performed to ensure complete dissociation. To determine the apparent KD toward the immobilized proteins, the steady-state responses of the blank-subtracted curves from each replicate were fitted using a single-site binding model.
(§4) In experiments conducted in a DMSO-free buffer (20 mM Na-phosphate, 150 mM NaCl, pH 7.4, 0.005% Tween 20), each replicate was followed by a two-fold dilution series of DMSO, matching the DMSO concentration in the compound solutions. In this case, the steady-state response of the blank-subtracted curve was corrected by the corresponding blank-subtracted DMSO steady-state response. The final values from each replicate were fitted using a single-site binding model using Origin 7 (OriginLab Corporation, Northampton, MA, USA).
(§5) For all experiments, the final KD(app) and Rmax values, along with their standard deviations, were obtained through statistical analysis based on three replicates.

influenza A strains = assay: Anti-influenza activity against influenza A strains (H1N1 and H3N2) in MDCK cells; assay type: cell-based, influenza A virus (H1N1 and H3N2 types); conditions: for activity against influenza A strains (in words): MDCK cells, H1N1 and H3N2; for ratio of CC50 to EC50 (selectivity): both determined by MTS assay, at best
Description: as §1

IAV (A/H3N2) = assay: CPE reduction assay, influenza A/H3N2 in MDCK cells; assay type: cell-based, influenza A virus A/H3N2 (A/Victoria/361/11 or A/HK/7/87); conditions: Influenza A virus, H3N2, 72 h
Description: as §1

H3N2 Hemagglutinin = H3N2 Hemagglutinin (Influenza A virus, UniProt P03437); assay: SPR affinity toward immobilized H3N2 hemagglutinin; assay type: binding, influenza type H3N2 (A/Aichi/2/1968); conditions: for Kd: KD(app)
Description: as §2, §3, §4, §5

IBV = assay: CPE reduction assay, influenza B in MDCK cells; assay type: cell-based, influenza B virus (B/Ned/537/05); conditions: Influenza B virus, 72 h
Description: as §1

[1] = Dynamic light scattering of aggregates; conditions: RSD of 3 measurements in brackets
H1N1 Neuraminidase = H1N1 Neuraminidase (Influenza A virus, UniProt C3W5S3); assay: SPR affinity toward immobilized H1N1 neuraminidase; assay type: binding, influenza H1N1 (A/California/04/2009); conditions: PBST with 5% DMSO, 25 °C
Description: as §2, §3, §5

[2] = tested on: Madin-Darby canine kidney (MDCK) cells; conditions: dog, 3 days
viral neuraminidase = conditions: cited from earlier work
hemagglutinin = conditions: cited from earlier work
[3] = MTS cell viability assay, day 3, read-out: Antiviral EC50, IAV (A/H1N1), MTS
[4] = microscopic scoring of cytopathic effect, day 3, read-out: Antiviral EC50, IAV (A/H1N1), CPE
[5] = H1N1 Hemagglutinin, PBST with 5% DMSO, 25 °C, steady-state single-site fit
[6] = H1N1 hemagglutinin, absence of DMSO, DMSO-free running buffer
[7] = MTS cell viability assay, day 3, read-out: Antiviral EC50, IAV (A/H3N2), MTS
[8] = microscopic scoring of cytopathic effect, day 3, read-out: Antiviral EC50, IAV (A/H3N2), CPE
[9] = H3N2 Hemagglutinin, PBST with 5% DMSO, 25 °C, steady-state single-site fit
[10] = H3N2 hemagglutinin, absence of DMSO, DMSO-free running buffer
[11] = MTS cell viability assay, day 3, read-out: Antiviral EC50, IBV, MTS
[12] = microscopic scoring of cytopathic effect, day 3, read-out: Antiviral EC50, IBV, CPE
[13] = 0.1 mg/mL (diluted with water), 25 °C
[14] = 1 mg/mL in water/DMSO 9:1, 25 °C

Structure (SMILES)	EC50 (IAV (A/H1N1); [3]) [µM]	EC50 (IAV (A/H1N1); [4]) [µM]	CC50 (in vitro) [µM]	activity against influenza A strains (in words) (influenza A strains)	EC50 (IAV (A/H3N2); [7]) [µM]	EC50 (IAV (A/H3N2); [8]) [µM]	EC50 (IBV; [11]) [µM]	EC50 (IBV; [12]) [µM]	Cytotoxicity MCC (minimum cytotoxic concentration) [2]	other results
CCCCCCCCOC1C(OC)OC(COCCOCCOCCOCCn2cc(CSC3(C(=O)O)CC(O)C(NC(C)=O)C(C(O)C(O)CO)O3)nn2)C(OCc2ccc(OC)cc2)C1OCCCCCCCC (centres unmarked) [Compound 12b]	15 ± 5	8.9	34 ± 13	effective; also recorded: moderate effect	8.7 ± 3.6	8.9	> 100	> 100	39 ± 20 µM	Rmax, H1N1 hemagglutinin, absence of DMSO (H1N1 Hemagglutinin; DMSO-free running buffer): 305 ± 30 RU; Kd (H1N1 Hemagglutinin; [5]): 161 ± 20 µM; Kd (H1N1 Hemagglutinin; [6]): 187 ± 41 µM; Rmax, H1N1 Hemagglutinin (H1N1 Hemagglutinin; PBST with 5% DMSO, 25 °C): 130 ± 12 RU; ratio of CC50 to EC50 (selectivity) (influenza A strains): ≤ 4 factor; Rmax, H3N2 hemagglutinin, absence of DMSO (H3N2 Hemagglutinin; DMSO-free running buffer): 454 ± 39 RU; Kd (H3N2 Hemagglutinin; [9]): 124 ± 21 µM; Kd (H3N2 Hemagglutinin; [10]): 279 ± 98 µM; Rmax, H3N2 Hemagglutinin (H3N2 Hemagglutinin; PBST with 5% DMSO, 25 °C): 135 ± 11 RU; d (average diameter of particles, DLS) [1, 13]: 108 (13.4%) ^a nm; d (average diameter of particles, DLS) [1, 14]: 96 (1.19%) ^a nm; Rmax, H1N1 Neuraminidase (H1N1 Neuraminidase): 175 ± 23 RU
CCCCCCCCOCC1OC(CCCSC2(C(=O)O)CC(O)C(NC(C)=O)C(C(O)C(O)CO)O2)C=CC1OCCCCCCCC (centres unmarked) [Compound 18b]	23	25	32 ± 8	effective; also recorded: moderate effect	6.2 ± 3	4.8 ± 1	> 100	> 100	63 ± 19 µM	Rmax, H1N1 hemagglutinin, absence of DMSO (H1N1 Hemagglutinin; DMSO-free running buffer): 783 ± 8 RU; Kd (H1N1 Hemagglutinin; [6]): 286 ± 19 µM; ratio of CC50 to EC50 (selectivity) (influenza A strains): ≤ 5 factor; Rmax, H3N2 hemagglutinin, absence of DMSO (H3N2 Hemagglutinin; DMSO-free running buffer): 925 ± 23 RU; Kd (H3N2 Hemagglutinin; [10]): 357 ± 23 µM; Rmax, H1N1 Neuraminidase (H1N1 Neuraminidase): 166 ± 53 RU
CCCCCCCCCCOCC1OC(CCCSC2(C(=O)O)CC(O)C(NC(C)=O)C(C(O)C(O)CO)O2)C=CC1OCCCCCCCCCC (centres unmarked) [Compound 18a]	> 100	> 100	10	–	> 100	> 100	> 100	> 100	20 ^d µM	–
CC(=O)NC1C(OC(=O)CNS(=O)(=O)c2cccc3c(N(C)C)cccc23)CC(OCCCCCCC(=O)NCc2cccc3ccccc23)(C(=O)O)OC1C(O)C(O)CO (centres unmarked) [Compound 2]	–	–	–	–	–	–	–	–	–	substrate for viral neuraminidase (in words) (viral neuraminidase): not a substrate; affinity for hemagglutinin (in words) (hemagglutinin): high affinity
CCCCCCCCOCC1OC(OCCOCCOCCOCCOCCCSC2(C(=O)O)CC(O)C(NC(C)=O)C(C(O)C(O)CO)O2)C=CC1OCCCCCCCC (centres unmarked) [Compound 23a]	> 100	> 100	54	no anti-influenza effect	> 100	> 100	> 100	> 100	40 ^d µM	Rmax, H1N1 hemagglutinin, absence of DMSO (H1N1 Hemagglutinin; DMSO-free running buffer): 197 ± 24 RU; Kd (H1N1 Hemagglutinin; [5]): 6220 ± 4040 µM; Kd (H1N1 Hemagglutinin; [6]): 106 ± 36 µM; Rmax, H1N1 Hemagglutinin (H1N1 Hemagglutinin; PBST with 5% DMSO, 25 °C): 505 ± 275 RU; Rmax, H3N2 hemagglutinin, absence of DMSO (H3N2 Hemagglutinin; DMSO-free running buffer): 200 ± 23 RU; Kd (H3N2 Hemagglutinin; [9]): 1220 ± 737 µM; Kd (H3N2 Hemagglutinin; [10]): 134 ± 48 µM; Rmax, H3N2 Hemagglutinin (H3N2 Hemagglutinin; PBST with 5% DMSO, 25 °C): 148 ± 43 RU; Rmax, H1N1 Neuraminidase (H1N1 Neuraminidase): 74 ± 13 RU
CCCCCCOCC1OC(OCCOCCOCCOCCOCCCSC2(C(=O)O)CC(O)C(NC(C)=O)C(C(O)C(O)CO)O2)C=CC1OCCCCCC (centres unmarked) [Compound 23b]	> 100	> 100	> 100	ineffective	> 100	> 100	> 100	> 100	>100 µM	–
CCCCCCCCCCOC1C(OC)OC(COCCOCCOCCOCCn2cc(CSC3(C(=O)O)CC(O)C(NC(C)=O)C(C(O)C(O)CO)O3)nn2)C(OCc2ccc(OC)cc2)C1OCCCCCCCCCC (centres unmarked) [Compound 12a]	> 100	> 100	64	–	> 100	> 100	> 100	> 100	20 ^d µM	d (average diameter of particles, DLS) [1, 13]: 170 (15.8%) ^a nm; d (average diameter of particles, DLS) [1, 14]: 126 (2.00%) ^a nm
NC(=O)c1ncn([C@@H]2O[C@H](CO)[C@@H](O)[C@H]2O)n1 [Ribavirin, reference compound]	25 ± 2	24 ± 6	> 250	–	24 ± 4	30 ± 6	5.4	10 ± 4	–	–
CCCCOC1C(OC)OC(COCCOCCOCCOCCn2cc(CSC3(C(=O)O)CC(O)C(NC(C)=O)C(C(O)C(O)CO)O3)nn2)C(OCc2ccc(OC)cc2)C1OCCCC (centres unmarked) [Compound 12c]	> 100	> 100	> 100	–	> 100	> 100	> 100	> 100	100 ± 0 µM	d (average diameter of particles, DLS) [1, 13]: 111 (14.2%) ^a nm; d (average diameter of particles, DLS) [1, 14]: 103 (28.3%) ^a nm
CCCCCCOCC1OC(CCCSC2(C(=O)O)CC(O)C(NC(C)=O)C(C(O)C(O)CO)O2)C=CC1OCCCCCC (centres unmarked) [Compound 18c]	> 100	> 100	> 100	–	> 100	> 100	> 100	> 100	100 ^d µM	–
COC1(C(=O)O)CC(O)C(NC(C)=O)C(C(O)C(O)CO)O1 (stereo not drawn) [methyl β-glycoside]	–	–	–	–	–	–	–	–	–	binding to hemagglutinin (in words) (hemagglutinin): does not bind at all
CO[C@]1(C(=O)O)C[C@H](O)[C@@H](NC(C)=O)[C@H]([C@H](O)[C@H](O)CO)O1 [Methyl α-glycoside of sialic acid]	–	–	–	–	–	–	–	–	–	binding to hemagglutinin (in words) (hemagglutinin): bind weakly
